Patent publication US20250368648A1, “MULTI-CYCLIC IRAK AND FLT3 INHIBITING COMPOUNDS AND USES THEREOF” (CHILDREN'S HOSPITAL MEDICAL CENTER, priority 2022, published 2025)

Tests used:
FLT3 Autoinh. = target: T1, FLT3 Autoinh. (Homo sapiens, UniProt P36888); experiment: DiscoverX KINOMEscan competition binding, FLT3 Autoinh.; conditions: no ATP
T1 construct: purchased DiscoverX (KINOMEscan); host or cells: E. coli (T7 phage) or HEK-293
T1 sequence (P36888 564-993 limits assumed): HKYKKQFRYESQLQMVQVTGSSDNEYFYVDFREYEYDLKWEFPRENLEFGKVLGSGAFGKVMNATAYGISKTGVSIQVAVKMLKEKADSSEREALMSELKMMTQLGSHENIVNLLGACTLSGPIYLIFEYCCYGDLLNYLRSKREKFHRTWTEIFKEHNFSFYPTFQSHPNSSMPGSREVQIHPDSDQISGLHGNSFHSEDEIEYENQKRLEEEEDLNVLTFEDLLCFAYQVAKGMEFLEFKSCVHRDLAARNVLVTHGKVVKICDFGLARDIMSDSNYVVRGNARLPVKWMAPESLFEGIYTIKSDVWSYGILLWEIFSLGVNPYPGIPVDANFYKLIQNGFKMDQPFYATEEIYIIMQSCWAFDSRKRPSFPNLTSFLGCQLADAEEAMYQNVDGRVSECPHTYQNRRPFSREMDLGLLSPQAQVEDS
From the text: (§1) Kinase binding data were obtained for various exemplary compounds prepared according to Examples 2-15 using the DiscoverX KINOMEscan® active site-directed competition binding site-directed assay protocol described below. […] As a result, the data report thermodynamic interaction affinities (Kd values), rather than IC50 values that are dependent on ATP concentrations. The assay uses a DNA-tagged version of the protein kinase, and an immobilized ligand bound to a solid support. Compounds that directly or indirectly prevent kinase binding to the immobilized ligand reduce the amount of kinase captured on the solid support, which is detected using an ultra-sensitive qPCR method. Affinity constants reported from the assay have been reported to be independent of the immobilized ligand used that is coupled to the solid support (See supplemental information in Fabian, M. A. et. al., (2005) Nat. […] Wodicka, L. […] Biol. 17, 1241-1249.) Kinase-tagged T7 phage strains were prepared in an E. coli host derived from the BL21 strain. E. coli were grown to log-phase and infected with T7 phage and incubated with shaking at 32° C. until lysis. […] Kds were determined using an 11-point 3-fold compound dilution series with three DMSO control points. […] The kinase concentration in the eluates was measured by qPCR. Binding constants (Kds) were calculated with a standard dose-response curve using the Hill equation. […]

FLT3 N841I = target: T2, FLT3 N841I (Homo sapiens, UniProt P36888, N841I); experiment: DiscoverX KINOMEscan competition binding, FLT3 N841I; conditions: no ATP
T2 construct: purchased DiscoverX (KINOMEscan); host or cells: E. coli (T7 phage) or HEK-293
T2 sequence (P36888 27-993 N841I): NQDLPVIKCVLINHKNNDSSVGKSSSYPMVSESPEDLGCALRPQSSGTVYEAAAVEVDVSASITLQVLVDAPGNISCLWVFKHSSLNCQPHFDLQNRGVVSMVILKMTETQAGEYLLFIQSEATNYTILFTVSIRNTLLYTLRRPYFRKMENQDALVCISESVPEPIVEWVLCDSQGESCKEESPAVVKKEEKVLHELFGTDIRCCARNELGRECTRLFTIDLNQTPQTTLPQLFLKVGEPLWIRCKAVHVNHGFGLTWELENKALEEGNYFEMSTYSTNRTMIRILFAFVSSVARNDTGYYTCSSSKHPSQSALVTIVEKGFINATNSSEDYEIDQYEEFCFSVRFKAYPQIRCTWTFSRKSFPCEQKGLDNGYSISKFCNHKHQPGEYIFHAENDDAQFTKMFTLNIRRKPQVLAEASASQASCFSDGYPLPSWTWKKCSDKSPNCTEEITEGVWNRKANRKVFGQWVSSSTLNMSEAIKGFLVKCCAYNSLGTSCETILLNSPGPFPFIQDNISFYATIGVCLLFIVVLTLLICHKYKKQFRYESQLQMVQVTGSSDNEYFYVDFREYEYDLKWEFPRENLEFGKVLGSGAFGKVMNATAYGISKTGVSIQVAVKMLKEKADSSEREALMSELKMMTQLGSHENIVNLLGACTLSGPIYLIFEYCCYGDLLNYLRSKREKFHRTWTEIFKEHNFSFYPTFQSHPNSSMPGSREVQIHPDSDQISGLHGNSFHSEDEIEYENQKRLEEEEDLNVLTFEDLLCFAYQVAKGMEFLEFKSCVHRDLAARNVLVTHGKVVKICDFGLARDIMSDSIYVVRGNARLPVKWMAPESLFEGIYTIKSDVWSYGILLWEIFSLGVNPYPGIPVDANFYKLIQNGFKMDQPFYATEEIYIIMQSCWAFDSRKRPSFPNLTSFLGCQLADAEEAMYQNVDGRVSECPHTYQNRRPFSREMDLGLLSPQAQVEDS
From the text: as §1

## COc1cc2ncc(-c3nc(N[C@H]4CNCC[C@@H]4F)c(F)cc3F)n2nc1C1CCC1 [Compound 15a, 6-(6-cyclobutyl-7-methoxyimidazo[1,2-b]pyridazin-3-yl)-3,5-difluoro-N-((3S,4S)-4-fluoropiperidin-3-yl)pyridin-2-amine]
FLT3 Autoinh.
  Kd: 5.8 nM
FLT3 N841I
  Kd: 0.25 nM
